# Measurements as given in US20200316159A1, “SUSTAINED RELEASE COMPOSITIONS OF KAPPA-OPIOID RECEPTOR AGONIST” (JT PHARMACEUTICALS, INC., priority 2016, published 2020).
# System: abuse liability (lever pressing for intravenous drug delivery)
# Assay: Self-administration model
# Format: in vivo, rat
# Description: Self-Administration Model.
# Addiction/dependence is a critical side effect of opioids and must be evaluated with any new member of this family. The most reliable test of abuse liability with the most translational relevance is a contingent drug self-administration model, in which rats are trained to press a lever for intravenous drug delivery. Sixteen standard self-administration chambers (30×20×20 cm, Med Associates) were housed inside sound-attenuating cubicles fitted with a fan for airflow and to mask noise. Each chamber contained two retractable levers, two stimulus lights, a speaker for tone delivery, and a house light to provide general illumination. In addition, each chamber was equipped with a balanced metal arm and spring leash attached to a swivel (Instech). Tygon® tubing extended through the leash and was connected to a 10 ml syringe mounted on an infusion pump located outside the sound-attenuating cubicle. Rats were anesthetized with i.p. injections of ketamine (66 mg/kg; Vedcolnc, St Joseph, Mo., USA), xylazine (1.3 mg/kg; Lloyd Laboratories, Shenandoah, Iowa, USA), and equithesin (0.5 ml/kg); sodium pentobarbital (4 mg/kg), chloral hydrate (17 mg/kg), and 21.3 mg/kg magnesium sulfate heptahydrate dissolved in 44% propylene glycol, 10% ethanol solution). Ketorolac (2.0 mg/kg, i.p. Sigma, St. Louis, Mo., USA) was given just prior to surgery as an analgesic. One end of a silastic catheter was inserted 33 mm into the external right jugular and secured with 4.0 silk sutures. The other end ran subcutaneously and exited from a small incision just below the scapula. This end is attached to an infusion harness (Instech Solomon, Plymouth Meeting, Pa., USA) that provides access to an external port for IV drug delivery. […]
# During self-administration, rats received an IV infusion (0.1 ml) of 10 U/ml heparinized saline before each session. […] Cocaine was chosen for comparison purposes because it is readily self-administered.
smiles,measurement,setting,value
CCCC[C@@H](NC(=O)[C@@H](Cc1ccccc1)NC(=O)[C@H](N)Cc1ccccc1)C(=O)N[C@H](CCCCN(C)C)C(=O)NCc1ccncc1 [Compound 9],lever responding in operant self-administration,"IV infusion 20 mg/kg/inf, 2-hr sessions, five-day period, n=8",failed to maintain lever responding
same,number of infusions in self-administration,"JT09 IV, days 2-5 compared to day one",decreased on all 4 days
